Results published in patent US9174994B2, “Enhanced treatment regimens using mTor inhibitors” (INTELLIKINE LLC, priority 2011, dated 2015).

Assay: Phase I clinical trial: treatment-emergent adverse events (patients, n (%)), dose limiting toxicity, MTD
Format: in vivo
[1] = all 3 intermittent dosing regimens, n=35

Description: Safety, maximum tolerated dose (MTD), pharmacokinetics (PK) and preliminary antitumor activity were evaluated.
Pharmacodynamic (PD) endpoints were evaluated in surrogate (peripheral blood cells [PBCs], skin) and tumor tissues for the phosphorylation of TORC1-dependent markers (4EBP1/S6), and TORC2-dependent markers (AKT/PRAS40).

CC(C)n1nc(-c2ccc3oc(N)nc3c2)c2c(N)ncnc21 [compound A]
10: Nausea (Total QW Dosing (N = 15))
11 (79%): Patients Reporting at Least One Related TEAE (Total QDx3d QW (N = 14))
29%: mucosal inflammation, AE considered possibly related [1]
2: Aspartate aminotransferase increased (Total QW Dosing (N = 15)) | Asthenia (Total QW Dosing (N = 15)) | HYPERGLYCEMIA (Total QW Dosing (N = 15))
13: Patients Reporting at Least One Related TEAE (Total QW Dosing (N = 15))
22 (88%): Hyperglycaemia (Total QD Dosing (N = 25))
1 (17%): Diarrhoea (Total QDx5d QW (N = 6)) | Rash (Total QDx5d QW (N = 6)) | Urine tract infection (Total QDx5d QW (N = 6)) | Vomiting (Total QDx5d QW (N = 6)) | Nausea (Total QDx5d QW (N = 6), 1st Nausea line) | Nausea (Total QDx5d QW (N = 6), 2nd Nausea line)
9 (36%): Nausea (Total QD Dosing (N = 25)) | Pruritus (Total QD Dosing (N = 25))
Grade 1 or 2: grade of the majority of AEs considered possibly related (any regimen)
2 (8%): Dehydration (Total QD Dosing (N = 25))
25 (100%): Patients Reporting at Least One Related TEAE (Total QD Dosing (N = 25))
8 (32%): Diarrhoea (Total QD Dosing (N = 25)) | Dysgeusia (Total QD Dosing (N = 25)) | Mucosal inflammation (Total QD Dosing (N = 25))
4 (16%): Thrombocytopenia (Total QD Dosing (N = 25))
3: Diarrhoea (Total QW Dosing (N = 15)) | Mucosal inflammation (Total QW Dosing (N = 15))
7 (50%): Mucosal inflammation (Total QDx3d QW (N = 14))
6 (43%): Hyperglycaemia (Total QDx3d QW (N = 14)) | Nausea (Total QDx3d QW (N = 14))
4 (29%): Pruritus (Total QDx3d QW (N = 14)) | Rash (Total QDx3d QW (N = 14))
13 (52%): Rash (Total QD Dosing (N = 25))
26%: vomiting, AE considered possibly related [1]
3 (21%): Asthenia (Total QDx3d QW (N = 14)) | Vomiting (Total QDx3d QW (N = 14))
5 (20%): Dry mouth (Total QD Dosing (N = 25)) | Hypercholesterolaemia (Total QD Dosing (N = 25))
3 (12%): Lymphopenia (Total QD Dosing (N = 25))
1 (4%): Cough (Total QD Dosing (N = 25)) | Dizziness (Total QD Dosing (N = 25)) | Dry skin (Total QD Dosing (N = 25)) | Dyspepsia (Total QD Dosing (N = 25)) | Dyspnoea (Total QD Dosing (N = 25)) | Dyspnoea exertional (Total QD Dosing (N = 25)) | Eye infection (Total QD Dosing (N = 25)) | Gastritis (Total QD Dosing (N = 25)) | Gravitational oedema (Total QD Dosing (N = 25)) | Hypocalcaemia (Total QD Dosing (N = 25)) | Insomnia (Total QD Dosing (N = 25)) | Muscle spasms (Total QD Dosing (N = 25)) | Orthostatic hypotension (Total QD Dosing (N = 25)) | Panniculitis (Total QD Dosing (N = 25)) | Polyuria (Total QD Dosing (N = 25)) | Skin discolouration (Total QD Dosing (N = 25)) | Skin exfoliation (Total QD Dosing (N = 25)) | Weight decreased (Total QD Dosing (N = 25))
not reached: MTD (intermittent dosing)
51%: nausea, AE considered possibly related [1]
2 (14%): Diarrhoea (Total QDx3d QW (N = 14))
23%: asthenia, AE considered possibly related [1] | rash, AE considered possibly related [1]
37%: hyperglycemia, AE considered possibly related [1]
2 (33%): Patients Reporting at Least One Related TEAE (Total QDx5d QW (N = 6))
20%: diarrhea, AE considered possibly related [1]
6 (24%): Decreased appetite (Total QD Dosing (N = 25)) | Fatigue (Total QD Dosing (N = 25)) | Vomiting (Total QD Dosing (N = 25))
1 (7%): Alanine aminotransferase increased (Total QDx3d QW (N = 14)) | Catheter site inflammation (Total QDx3d QW (N = 14)) | Catheter site pain (Total QDx3d QW (N = 14)) | Decreased appetite (Total QDx3d QW (N = 14)) | Dry skin (Total QDx3d QW (N = 14)) | Dysgeusia (Total QDx3d QW (N = 14)) | Dyspnoea (Total QDx3d QW (N = 14)) | Fatigue (Total QDx3d QW (N = 14)) | Headache (Total QDx3d QW (N = 14)) | Hyperbilirubinaemia (Total QDx3d QW (N = 14)) | Hypercholesterolaemia (Total QDx3d QW (N = 14)) | Hypertransaminasaemia (Total QDx3d QW (N = 14)) | Hypertriglyceridaemia (Total QDx3d QW (N = 14)) | Hypomagnesaemia (Total QDx3d QW (N = 14)) | Hypotension (Total QDx3d QW (N = 14)) | Low fever (Total QDx3d QW (N = 14)) | Lymphopenia (Total QDx3d QW (N = 14)) | Palmar-plantar erythrodysaesthesia syndrome (Total QDx3d QW (N = 14)) | Platelet count decreased (Total QDx3d QW (N = 14)) | Pyrexia (Total QDx3d QW (N = 14)) | Rash macular (Total QDx3d QW (N = 14)) | Urinary tract infection (Total QDx3d QW (N = 14)) | Asthenia (Total QDx3d QW (N = 14), 2nd Asthenia line) | ASTHENIA (Total QW Dosing (N = 15)) | ATHENIA (Total QW Dosing (N = 15)) | Alanine aminotransferase increased (Total QW Dosing (N = 15)) | Blood creatinine increased (Total QW Dosing (N = 15)) | Blood triglycerides increased (Total QW Dosing (N = 15)) | DIARRHEA (Total QW Dosing (N = 15)) | Decreased appetite (Total QW Dosing (N = 15)) | Dysgeusia (Total QW Dosing (N = 15)) | Dyspepsia (Total QW Dosing (N = 15)) | Lymphopenia (Total QW Dosing (N = 15)) | Malaise (Total QW Dosing (N = 15)) | Muscle spasms (Total QW Dosing (N = 15)) | Oral discomfort (Total QW Dosing (N = 15)) | Pruritus (Total QW Dosing (N = 15)) | RASH (Total QW Dosing (N = 15)) | Rash (Total QW Dosing (N = 15)) | WEAKNESS (Total QW Dosing (N = 15))
5: Hyperglycaemia (Total QW Dosing (N = 15)) | Vomiting (Total QW Dosing (N = 15))
